Source: US7659404B2, “Broad spectrum 2-(substituted-amino)-benzothiazole sulfonamide HIV protease inhibitors” (Tibotec Pharmaceuticals Ltd., priority 2001, dated 2010)

Columns and labels:
HIV-1 strain LAI = test: Cellular anti-HIV assay in MT4 cells (MTT), wild type laboratory strain; type: cell-based; settings: Human immunodeficiency virus 1, 120 h; MT4 cells, five days, MTT; read-out: EC50 value against HIV-1 strain LAI
Description: The compounds of the present invention were examined for anti-viral activity in a cellular assay. […] The cellular assay was performed according to the following procedure.
Cellular Assay Experimental Method:
(§1) HIV- or mock-infected MT4 cells were incubated for five days in the presence of various concentrations of the inhibitor. At the end of the incubation period, all HIV-infected cells have been killed by the replicating virus in the control cultures in the absence of any inhibitor. Cell viability is measured by measuring the concentration of MTT, a yellow, water soluble tetrazolium dye that is converted to a purple, water insoluble formazan in the mitochondria of living cells only. Upon solubilization of the resulting formazan crystals with isopropanol, the absorbance of the solution is monitored at 540 nm. The values correlate directly to the number of living cells remaining in the culture at the completion of the five day incubation. The inhibitory activity of the compound was monitored on the virus-infected cells and was expressed as EC50 and EC90. These values represent the amount of the compound required to protect 50% and 90%, respectively, of the cells from the cytopathogenic effect of the virus. The toxicity of the compound was measured on the mock-infected cells and was expressed as CC50, which represents the concentration of compound required to inhibit the growth of the cells by 50%. The selectivity index (SI) (ratio CC50/EC50) is an indication of the selectivity of the anti-HIV activity of the inhibitor.

virus strain F (R13025) = test: microbe, parasite or virus in culture; type: cell-based, HIV; settings: FR=EC50(mutant strain)/EC50(HIV-1 strain LAI); strain F
How it was run: (§2)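 Anti-HIV activity against multiply mutated clinical isolates is measured in MT4 cells over a five-day incubation, using MTT viability (540 nm) as a proxy for protection from viral cytopathicity. Values are reported as EC50 or as fold change versus the LAI reference strain.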

virus strain S (R13080) = test: microbe, parasite or virus in culture; type: cell-based, HIV; settings: FR=EC50(mutant strain)/EC50(HIV-1 strain LAI); strain S
How it was run: as §2

[1] = system: clinically isolated HIV strain A; test: Antiviral spectrum, cellular assay (fold resistance), strain A; type: cell-based; settings: FR=EC50(mutant strain)/EC50(HIV-1 strain LAI)
Description: as §1
(§3) Because of the increasing emergence of drug resistant HIV strains, the present compounds were tested for their potency against clinically isolated HIV strains harboring several mutations. These mutations are associated with resistance to protease inhibitors and result in viruses that show various degrees of phenotypic cross-resistance to the currently commercially available drugs such as for instance saquinavir, ritonavir, nelfinavir, indinavir and amprenavir.
(§4) As a measure of the broad spectrum activity of the present compounds, the fold resistance (FR) defined as FR=EC50(mutant strain)/EC50(HIV-1 strain LAI).

[2] = system: clinically isolated HIV strain B; test: Antiviral spectrum, cellular assay (fold resistance), strain B; type: cell-based; settings: FR=EC50(mutant strain)/EC50(HIV-1 strain LAI)
Description: as §1, §3, §4

[3] = system: clinically isolated HIV strain C; test: Antiviral spectrum, cellular assay (fold resistance), strain C; type: cell-based; settings: FR=EC50(mutant strain)/EC50(HIV-1 strain LAI)
Description: as §1, §3, §4

[4] = system: clinically isolated HIV strain D; test: Antiviral spectrum, cellular assay (fold resistance), strain D; type: cell-based; settings: FR=EC50(mutant strain)/EC50(HIV-1 strain LAI)
Description: as §1, §3, §4

[5] = system: clinically isolated HIV strain E; test: Antiviral spectrum, cellular assay (fold resistance), strain E; type: cell-based; settings: FR=EC50(mutant strain)/EC50(HIV-1 strain LAI)
Description: as §1, §3, §4

[6] = system: clinically isolated HIV strain G; test: Antiviral spectrum, cellular assay (fold resistance), strain G; type: cell-based; settings: FR=EC50(mutant strain)/EC50(HIV-1 strain LAI)
Description: as §1, §3, §4

[7] = system: clinically isolated HIV strain H; type: cell-based; settings: FR=EC50(mutant strain)/EC50(HIV-1 strain LAI)
How it was run: as §2

[8] = system: clinically isolated HIV strain I; type: cell-based; settings: FR=EC50(mutant strain)/EC50(HIV-1 strain LAI)
How it was run: as §2

[9] = system: clinically isolated HIV strain J; type: cell-based; settings: FR=EC50(mutant strain)/EC50(HIV-1 strain LAI)
How it was run: as §2

[10] = system: clinically isolated HIV strain O; type: cell-based; settings: FR=EC50(mutant strain)/EC50(HIV-1 strain LAI)
How it was run: as §2

[11] = system: clinically isolated HIV strain T; type: cell-based; settings: FR=EC50(mutant strain)/EC50(HIV-1 strain LAI)
How it was run: as §2

[12] = system: clinically isolated HIV strain K; test: Antiviral spectrum, cellular assay (fold resistance), strain K; type: cell-based; settings: FR=EC50(mutant strain)/EC50(HIV-1 strain LAI)
Description: as §1, §3, §4

[13] = system: clinically isolated HIV strain L; test: Antiviral spectrum, cellular assay (fold resistance), strain L; type: cell-based; settings: FR=EC50(mutant strain)/EC50(HIV-1 strain LAI)
Description: as §1, §3, §4

[14] = system: clinically isolated HIV strain M; test: Antiviral spectrum, cellular assay (fold resistance), strain M; type: cell-based; settings: FR=EC50(mutant strain)/EC50(HIV-1 strain LAI)
Description: as §1, §3, §4

[15] = system: clinically isolated HIV strain N; test: Antiviral spectrum, cellular assay (fold resistance), strain N; type: cell-based; settings: FR=EC50(mutant strain)/EC50(HIV-1 strain LAI)
Description: as §1, §3, §4

[16] = system: clinically isolated HIV strain P; test: Antiviral spectrum, cellular assay (fold resistance), strain P; type: cell-based; settings: FR=EC50(mutant strain)/EC50(HIV-1 strain LAI)
Description: as §1, §3, §4

[17] = system: clinically isolated HIV strain Q; test: Antiviral spectrum, cellular assay (fold resistance), strain Q; type: cell-based; settings: FR=EC50(mutant strain)/EC50(HIV-1 strain LAI)
Description: as §1, §3, §4

[18] = system: clinically isolated HIV strain R; test: Antiviral spectrum, cellular assay (fold resistance), strain R; type: cell-based; settings: FR=EC50(mutant strain)/EC50(HIV-1 strain LAI)
Description: as §1, §3, §4

Row | SMILES | fold resistance (FR), strain F (virus strain F (R13025)) | fold resistance (FR), strain S (virus strain S (R13080)) | fold resistance (FR), strain A [1] | fold resistance (FR), strain B [2] | fold resistance (FR), strain C [3] | fold resistance (FR), strain D [4] | fold resistance (FR), strain E [5] | fold resistance (FR), strain G [6] | fold resistance (FR), strain H [7] | fold resistance (FR), strain I [8] | fold resistance (FR), strain J [9] | fold resistance (FR), strain O [10] | fold resistance (FR), strain T [11] | fold resistance (FR), strain K [12] | fold resistance (FR), strain L [13] | fold resistance (FR), strain M [14] | fold resistance (FR), strain N [15] | fold resistance (FR), strain P [16] | fold resistance (FR), strain Q [17] | fold resistance (FR), strain R [18] | further results
1 | CCOC(=O)Nc1nc2ccc(S(=O)(=O)N(CC(C)C)CC(O)C(Cc3ccccc3)NC(=O)OC3COC4OCCC34)cc2s1 (stereo not drawn) [Compound 2] | 1.1 | 1.7 | 0.3 | 0.2 | 0.2 | 0.3 | 0.4 | 0.2 | 1.0 | 0.7 | 0.4 | 0.8 | 29.6 | 0.2 | 0.2 | 0.3 | 1.1 | 0.2 | 0.3 | 0.3 | EC50 (HIV-1 strain LAI): < 50 nM
2 | CC(C)CN(CC(O)C(Cc1ccccc1)NC(=O)OC1COC2OCCC12)S(=O)(=O)c1ccc2nc(NC(=O)CN3CCCC3)sc2c1 (stereo not drawn) [Compound 12] | 0.4 | 0.8 | 0.3 | 0.4 | 0.3 | 0.4 | 0.4 | 0.2 | 0.4 | 0.4 | 0.3 | 0.4 | 5.9 | 0.2 | 0.1 | 0.2 | 0.4 | 0.1 | 0.4 | 0.4 | EC50 (HIV-1 strain LAI): < 50 nM
3 | CC(C)CN(C[C@@H](O)[C@H](Cc1ccccc1)NC(=O)O[C@H]1CO[C@H]2OCC[C@H]21)S(=O)(=O)c1ccc2nc(NCCN(C)C)sc2c1 [Compound 16] | 0.4 | 1.6 | 0.2 | 0.3 | 0.2 | 0.2 | 0.3 | 0.2 | 0.3 | 0.3 | 0.3 | 0.3 | 6.6 | 0.2 | 0.1 | 0.2 | 0.4 | 0.1 | 0.2 | 0.2 | EC50 (HIV-1 strain LAI): < 50 nM
4 | CC(C)CN(C[C@@H](O)[C@H](Cc1ccccc1)NC(=O)O[C@H]1CCOC1)S(=O)(=O)c1ccc2nc(NC(=O)CN3CCNCC3)sc2c1 [Compound 35] | 2.1 | 4.3 | 0.5 | 0.9 | 0.6 | 0.5 | 0.9 | 0.5 | 0.8 | 0.8 | 0.8 | 0.3 | 22.2 | 0.4 | 0.2 | 0.6 | 1.1 | 0.2 | 0.9 | 0.9 | 
5 | Cc1cccc(C)c1OCC(=O)N[C@@H](Cc1ccccc1)[C@H](O)CN(CC(C)C)S(=O)(=O)c1ccc2nc(NC(=O)CN3CCCC3)sc2c1 [Compound 37] | 6.1 | 10.0 | 6.1 | 1.9 | 3.8 | 1.4 | 1.6 | 1.3 | 4.1 | 6.8 | 5.0 | 7.3 | 185.8 | 0.5 | 2.1 | 5.0 | 1.4 | 0.3 | 3.8 | 1.5 | 
6 | Cc1cc(N)ccc1C(=O)NC(Cc1ccccc1)C(O)CN(CC(C)C)S(=O)(=O)c1ccc2nc(NC(=O)CN(C)C)sc2c1 (stereo not drawn) [Compound 43] | 1.1 | 3.0 | 1.1 | 0.9 | 1.1 | 0.9 | 0.7 | 0.6 | 1.3 | 1.5 | 3.4 | 2.4 | 31.4 | 0.4 | 1.0 | 1.2 | 1.2 | 0.2 | 1.1 | 1.0 | EC50 (HIV-1 strain LAI): < 50 nM
7 | CC(C)CN(C[C@@H](O)[C@H](Cc1ccccc1)NC(=O)O[C@H]1CCOC1)S(=O)(=O)c1ccc2nc(NC(=O)CN3CCN(C)CC3)sc2c1.O=C(O)C(F)(F)F [Compound 64] | 4.6 | 17.0 | 0.7 | 0.7 | 0.6 | 0.6 | 0.7 | 0.6 | 0.9 | 1.3 | 1.0 | 0.8 | 165.5 | 0.7 | 0.2 | 0.7 | 0.9 | 0.2 | 2.3 | 0.6 | 
